Patent US20250052985A1, “SYSTEM AND METHOD FOR QUANTITATIVE PHASE IMAGING FOR MULTI-PARAMETRIC SCREENING OF TUMOR THERAPY RESPONSE” (UNIVERSITY OF UTAH RESEARCH FOUNDATION, priority 2023, published 2025)
“And” between values parts separate entries of the source, which are not always exact repeats. Identical values can stand only once.

Columns and labels:
MCF-7 cells [1] = assay: CellTiter-Glo (CTG) ATP viability assay, MCF-7; format: cell-based; conditions: for EC50: Homo sapiens
Description: CTG (e.g., read by the CTG reader 115) is a cell viability assay that quantifies the amount of ATP present at the end of an experiment as an indicator of the number of live cells. The electronic controller 155 measures ATP content in each condition as a readout by a luminescent signal, which is normalized by the luminescence of the control (e.g., a control well) to determine cell viability relative to on-plate controls. In some embodiments, the CTG assay is performed by first removing 100 μL of media from each well on the well-plate 105, which is then replaced with an equal amount of CellTiter-Glo reagent (e.g., Promega, G7572). Assayed plates may be shaken at 500 RPM for 20 minutes and allowed to rest for 10 minutes. In some instances, 100 μL of volume from each well is transferred to a white 96-well plate (e.g., Perkin Elmer, 6005680). The electronic controller 155 collects luminescence data from each well using an Envision plate reader (e.g., Perkin Elmer) and normalized against the solvent control to measure ATP content. The electronic controller 155 fits a 4-parameter hill curve to the dose response to determine the EC50 and depth of response.

MDA-MB-231 cells = assay: Quantitative phase imaging (QPI) growth response, MDA-MB-231; format: cell-based; design: DoR QPI: scale not given here; ToR 20 μM: unit not given here; conditions: for Max Asymptote / Min Asymptote: MDA-MB-231, 4-parameter Hill fit of mean SGR vs concentration, one line per replicate
Summary of the method: (§1)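 Breast cancer lines imaged noninvasively by DPC-based quantitative phase imaging across 6-point dose responses in triplicate with solvent controls, for 24 h or 72 h after 3 h equilibration, then CellTiter-Glo ATP viability. Mean specific growth rate fitted to a 4-parameter Hill curve for EC50, with an F-test (p<0.01) against a flat line to determine response.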

BT-474 cells [2] = assay: CellTiter-Glo (CTG) ATP viability assay, BT-474; format: cell-based; conditions: for Min Asymptote: BT-474, Hill fit of luminescence normalized to solvent control, one line per replicate; for EC50: Homo sapiens, read-out: log10(EC50) (converted)
Summary of the method: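 Cell viability was read as ATP content by CellTiter-Glo luminescence after replacing media with reagent, shaking 20 min and resting 10 min. Signal was normalized to solvent control, and a 4-parameter Hill fit to the dose response gave EC50 and depth of response.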

BT-474 cells [3] = assay: cells; conditions: for Max Asymptote / Min Asymptote: BT-474, 4-parameter Hill fit of mean SGR vs concentration, one line per replicate
Summary of the method: as §1

MCF-7 cells [4] = assay: cells; conditions: for Max Asymptote / Min Asymptote: MCF-7, 4-parameter Hill fit of mean SGR vs concentration, one line per replicate; for Hill Slope: MCF-7, Hill fit
Summary of the method: as §1

CC(=O)O[C@@]12CO[C@@H]1C[C@H](O)[C@@]1(C)C(=O)[C@H](O)C3=C(C)[C@@H](OC(=O)[C@H](O)[C@@H](NC(=O)OC(C)(C)C)c4ccccc4)C[C@@](O)([C@@H](OC(=O)c4ccccc4)[C@H]21)C3(C)C [Docetaxel] was tested, and the “Hill Slope” value (MCF-7 cells [1]; 72 h CTG, MCF-7, Hill fit) was 5.079 and 4.965, the “log10(EC50)” value (MCF-7 cells [1]; 72 h CTG, MCF-7, Hill fit) was 3.291 and the “Min Asymptote” value (MCF-7 cells [1]; 72 h CTG, MCF-7, Hill fit of luminescence normalized to solvent control, one line per replicate) was 0.368 (2×) and 0.4065. For the same compound, the EC50 (MCF-7 cells [1]; MCF7, 72 h, 72 h CTG, MCF-7, Hill fit, read-out: log10(EC50) (converted)) was 0.455 nM, the EC50 (MCF-7 cells [1]; MCF7, MCF-7 cell line, CellTiter-Glo, read-out: EC50, CTG (converted)) was 0.501 nM and the “DoR CTG” value (MCF-7 cells [1]; MCF-7 cell line, depth of response, CellTiter-Glo) was 0.6. The “Max Asymptote” value (MDA-MB-231 cells; 24 h QPI) was 0.03347 and 0.03066 and 0.02364, the “Min Asymptote” value (MDA-MB-231 cells; 24 h QPI) was 0.01673 and 0.01578 and 0.02364 and the “Max Asymptote” value (MDA-MB-231 cells; 72 h QPI) was 0.01382 and 0.01017 and 0.02742. For the same compound, the “Min Asymptote” value (MDA-MB-231 cells; 72 h QPI) was 0.04028 and 0.02962 and 0.02742, the EC50 (MDA-MB-231 cells; Homo sapiens, MDA-MB-231, MDA-MB-231 cell line, EC50 of the standard deviation, read-out: EC50, SD (converted)) was 1.11 nM and the “growth rate and heterogeneity over time” value (MDA-MB-231 cells; MDA-MB-231) was “decrease in growth rate and heterogeneity simultaneously”. The “growth rate and heterogeneity over time” value (MDA-MB-231 cells; MDA-MB-231, 0.4 μM) was “decrease in growth rate and heterogeneity simultaneously”, the “growth rate and heterogeneity over time” value (MDA-MB-231 cells; MDA-MB-231, 2 μM) was “decrease in growth rate and heterogeneity simultaneously” and the “SGR distribution over 72 h” value (MDA-MB-231 cells; MDA-MB-231, 20 μM) was “distinctive long tail of non-responders that persists at 72 h”. For the same compound, the “growth rate and heterogeneity over time” value (MDA-MB-231 cells; MDA-MB-231, 20 μM) was “decrease in growth rate and heterogeneity simultaneously”, the “growth rate and heterogeneity over time” value (MDA-MB-231 cells; MDA-MB-231, lowest concentrations, FIG. 21 G-H) was “growth rate decreases over time with little change in heterogeneity” and the “DoR QPI” value (MDA-MB-231 cells; MDA-MB-231 cell line, depth of response, QPI) was 0.7. The “ToR 20 μM” value (MDA-MB-231 cells; MDA-MB-231 cell line, time of response at 20 μM) was 3.5, the “Hill Slope” value (BT-474 cells [2]; 24 h CTG, BT-474, Hill fit) was 7.175 and the “Min Asymptote” value (BT-474 cells [2]; 24 h CTG) was 0.8491. For the same compound, the “Hill Slope” value (BT-474 cells [2]; 72 h CTG, BT-474, Hill fit) was 7.938 and 5.667, the “log10(EC50)” value (BT-474 cells [2]; 72 h CTG, BT-474, Hill fit) was 2.403 and the “Min Asymptote” value (BT-474 cells [2]; 72 h CTG) was 0.2805 and 0.3348. For the same compound, the “DoR CTG” value (BT-474 cells [2]; BT-474 cell line, depth of response, CellTiter-Glo) was 0.6, the EC50 (BT-474 cells [2]; BT-474, 24 h, 24 h CTG, BT-474, Hill fit) was 13.7 nM and the EC50 (BT-474 cells [2]; BT-474, 72 h, 72 h CTG, BT-474, Hill fit) was 3.34 nM. The “Max Asymptote” value (BT-474 cells [3]; 24 h QPI) was 0.009874 and 0.01051, the “Min Asymptote” value (BT-474 cells [3]; 24 h QPI) was 0.00518 and 0.00803 and the “Hill Slope” value (BT-474 cells [3]; 24 h QPI, BT-474, Hill fit) was 0.2745 and 0.5361. For the same compound, the “Max Asymptote” value (BT-474 cells [3]; 72 h QPI) was 0.00164 and 0.002702, the “Min Asymptote” value (BT-474 cells [3]; 72 h QPI) was 0.009387 and 0.007464 and the “Hill Slope” value (BT-474 cells [3]; 72 h QPI, BT-474, Hill fit) was 3.8183 and 2.5139. The “log10(EC50)” value (BT-474 cells [3]; 72 h QPI, BT-474, Hill fit, EC50 in μM per Table 1) was 2.1891, the “growth rate and heterogeneity over time” value (BT-474 cells [3]; BT-474, 0.016 μM) was “decreased growth rate and increased heterogeneity” and the “growth rate and heterogeneity over time” value (BT-474 cells [3]; BT-474, 0.4 μM) was “reduced growth rate and increased heterogeneity”. The “growth rate and heterogeneity over time” value (BT-474 cells [3]; BT-474, 2 μM) was “population heterogeneity is increased and growth rate decreases”, the “growth rate and heterogeneity over time” value (BT-474 cells [3]; BT-474, 20 μM) was “decreases, while the heterogeneity for both populations increases” and the “change of population spread (SD) of SGR” value (BT-474 cells [3]; BT-474, 20 μM, with significant decrease in mean response) was “no significant change to the spread”. For the same compound, the “response of growth rate and heterogeneity to treatment” value (BT-474 cells [3]; BT-474, FIG. 5E, 22, 23) was “both reduced growth rate and slightly increased heterogeneity”, the “DoR QPI” value (BT-474 cells [3]; BT-474 cell line, depth of response, QPI) was 0.8 and the “ToR 20 μM” value (BT-474 cells [3]; BT-474 cell line, time of response at 20 μM) was 10.9. For the same compound, the EC50 (BT-474 cells [3]; Homo sapiens, BT-474, 72 h, read-out: log10(EC50), 72 h QPI, BT-474, Hill fit (converted), EC50 in μM per Table 1) was 0.00383 µM, the “Max Asymptote” value (MCF-7 cells [4]; 24 h QPI) was 0.02457 and 0.02891 and 0.02213 and the “Min Asymptote” value (MCF-7 cells [4]; 24 h QPI) was 0.01057 and 0.01168 and 0.008144. The “Hill Slope” value (MCF-7 cells [4]; 24 h QPI) was 1.6196 and 1.4393 and 1.4829, the “Max Asymptote” value (MCF-7 cells [4]; 72 h QPI) was 0.00408 and 0.005816 and 0.004488 and the “Min Asymptote” value (MCF-7 cells [4]; 72 h QPI) was 0.021 and 0.02567 and 0.0188. The “Hill Slope” value (MCF-7 cells [4]; 72 h QPI) was 1.6038 and 0.9248 and 1.3228, the EC50 (MCF-7 cells [4]; Homo sapiens, MCF7, read-out: EC50, QPI, MCF-7 cell line, QPI growth rate) was 0.912 nM and the “DoR QPI” value (MCF-7 cells [4]; MCF-7 cell line, depth of response, QPI) was 0.8. For the same compound, the “ToR 20 μM” value (MCF-7 cells [4]; MCF-7 cell line, time of response at 20 μM) was 5.9.
